The record followed here is ChEMBL document CHEMBL1201862, “PubChem BioAssay data set” (2004).

Test systems include HOP-62; RPMI-8226; HCT-116; NCI-H460; KM12; SN12C; TK-10; COLO 205; MOLT-4; IGROV-1; SNB-75; SK-MEL-28; HCT-15; HT-29; HOP-92; NCI-H23; K562; SK-MEL-2; MCF7; NCI-H522.
Holding throughout (assay): DTP human tumour cell line panel, 48 h

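Dose response: 5 concentrations. Exposure: 48 h. Format: 96-well plates. Endpoint: linear interpolation; highest concentration if not reached. Abbreviation: GI50, concentration required for 50% inhibition of growth.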 Calls of active or inactive are those of the source. Cut-off read from the data, not from the text of the source: active = GI50 up to about 1.1 µM and inactive = higher. Some results are limits rather than exact numbers.

Broadly, the GI50 is the concentration that inhibits growth by half. For the compound `Nc1nc(Cl)cc(NCCCCO)n1`, the GI50 is > 10 µM (inactive) with HOP-62; > 100 µM (inactive) in the assay with RPMI-8226; > 100 µM (inactive) in the assay on HCT-116; > 100 µM (inactive) in the assay with NCI-H460; > 100 µM (inactive) in the assay with KM12; > 100 µM (inactive) in the assay on SN12C. In addition, the GI50 in the assay on TK-10 was > 100 µM (inactive); in the assay with COLO 205, > 100 µM (inactive); with MOLT-4, > 100 µM (inactive); in the assay with IGROV-1, > 100 µM (inactive); in the assay with SNB-75 it was 65.3 µM (inactive); in the assay with SK-MEL-28, > 100 µM (inactive). Also, the GI50 in the assay with HCT-15 is greater than 100 µM; in the assay with HT-29, > 100 µM (inactive); in the assay with HOP-92, > 100 µM (inactive); in the assay with NCI-H23, > 100 µM (inactive); with K562 it was > 100 µM (inactive); in the assay on SK-MEL-2, > 100 µM (inactive).
On to `Nc1nc(SCCc2ccccc2)nc2nc3c(c(-c4ccccc4)c12)CCCC3`, for which the GI50 is 66.1 µM (inactive) with HOP-62; > 100 µM (inactive) in the assay with RPMI-8226; > 10 µM (inactive) with HCT-116; > 100 µM (inactive) in the assay with NCI-H460; > 100 µM (inactive) in the assay on KM12; > 100 µM (inactive) with SN12C. Besides, the GI50 in the assay with TK-10 was > 100 µM (inactive); with COLO 205 it was > 100 µM (inactive); in the assay on MOLT-4, > 100 µM (inactive); with IGROV-1 it was > 100 µM (inactive); in the assay on MCF7, > 100 µM (inactive); in the assay with SNB-75, 34.9 µM (inactive). The GI50 with SK-MEL-28 was > 100 µM (inactive); with HCT-15, greater than 100 µM; with HT-29, > 100 µM (inactive); with NCI-H23, > 100 µM (inactive); in the assay on K562 it was > 100 µM (inactive).
Take `C[C@@H](NC(=O)[C@@H]1C[C@]1(C)COC(=O)c1cc([N+](=O)[O-])cc([N+](=O)[O-])c1)c1cccc2ccccc12`: the GI50 was 53 µM (inactive) with HOP-62; > 100 µM (inactive) in the assay with RPMI-8226; > 100 µM (inactive) with HCT-116; > 100 µM (inactive) in the assay with NCI-H460; > 100 µM (inactive) with KM12; > 100 µM (inactive) with SN12C. Further, the GI50 was > 100 µM (inactive) in the assay on TK-10; > 100 µM (inactive) in the assay on COLO 205; > 100 µM (inactive) in the assay with MOLT-4; 70.3 µM (inactive) in the assay on IGROV-1; > 100 µM (inactive) with MCF7; 37.1 µM (inactive) with SNB-75. Moreover, the GI50 in the assay with SK-MEL-28 is > 100 µM (inactive); in the assay on HCT-15 it was greater than 100 µM; in the assay on HT-29 it was 52.2 µM (inactive); with HOP-92 it was 80.2 µM (inactive); with NCI-H23, > 100 µM (inactive); in the assay on K562, > 100 µM (inactive). In addition, the GI50 in the assay with SK-MEL-2 was > 100 µM (inactive).
Regarding `CON(C)c1nc(N)c(C#N)c(C#N)c1C#N`, the GI50 in the assay with HOP-62, in the assay on NCI-H522, in the assay on RPMI-8226, in the assay on HCT-116, in the assay with NCI-H460 and in the assay on KM12 was > 10 µM (inactive) in each case. Further, the GI50 with SN12C, in the assay with TK-10, in the assay with COLO 205, with MOLT-4, in the assay with IGROV-1 and with MCF7 was > 10 µM (inactive) throughout. Besides, the GI50 is > 10 µM (inactive) in the assay on SNB-75; > 10 µM (inactive) in the assay with SK-MEL-28; greater than 10 µM in the assay on HCT-15; > 10 µM (inactive) in the assay with HT-29; > 10 µM (inactive) in the assay with NCI-H23; > 10 µM (inactive) with SK-MEL-2.
With `CSc1nc(NC2OCC(O)C(O)C2O)c(N)c(=O)n1C` (stereo not given), the GI50 with HOP-62, in the assay with NCI-H522, with RPMI-8226, with HCT-116, with NCI-H460 and in the assay on KM12 was > 100 µM (inactive) throughout. Also, the GI50 with SN12C was > 100 µM (inactive); in the assay with COLO 205 it was > 100 µM (inactive); in the assay on MOLT-4 it was > 100 µM (inactive); in the assay on IGROV-1 it was > 100 µM (inactive); in the assay with MCF7, > 100 µM (inactive); in the assay on SNB-75, 51.6 µM (inactive). The GI50 in the assay with SK-MEL-28 was > 100 µM (inactive); in the assay on HCT-15 it was greater than 100 µM; in the assay on HT-29, > 100 µM (inactive); with HOP-92, > 100 µM (inactive); in the assay with NCI-H23 it was > 100 µM (inactive); in the assay with K562, > 100 µM (inactive). Further, the GI50 in the assay on SK-MEL-2 was > 100 µM (inactive).
Take `CCC1NC(/N=N/c2ccc([N+](=O)[O-])cc2)(P(=O)(OC(C)C)OC(C)C)OC1=O` (stereo not given): the GI50 in the assay with HOP-62, with NCI-H522, in the assay with RPMI-8226, in the assay on HCT-116, in the assay on KM12 and in the assay with SN12C was > 100 µM (inactive) throughout. Further, the GI50 was > 100 µM (inactive) in the assay on TK-10; > 100 µM (inactive) in the assay with COLO 205; > 100 µM (inactive) in the assay with MOLT-4; > 100 µM (inactive) with IGROV-1; 23.6 µM (inactive) in the assay on SNB-75; > 100 µM (inactive) with SK-MEL-28. Moreover, the GI50 with HT-29, in the assay with HOP-92, with NCI-H23, with K562 and in the assay with SK-MEL-2 was > 100 µM (inactive) in each case.
Turning to `C/C(=C\c1ccccc1)n1c(=O)cc(C)n1C`, the GI50 in the assay with HOP-62, in the assay with RPMI-8226, in the assay with HCT-116, in the assay on NCI-H460, with KM12 and with SN12C was > 100 µM (inactive) each time. Moreover, the GI50 was > 100 µM (inactive) in the assay with TK-10; > 100 µM (inactive) with COLO 205; 25.7 µM (inactive) in the assay with MOLT-4; > 100 µM (inactive) in the assay on IGROV-1; > 100 µM (inactive) with MCF7; > 100 µM (inactive) with SNB-75. In addition, the GI50 in the assay on SK-MEL-28, with HT-29, in the assay on HOP-92, in the assay on NCI-H23, in the assay on K562 and in the assay with SK-MEL-2 was > 100 µM (inactive) each time.
Regarding `Cc1cc([N+](=O)[O-])ccc1/N=N/C(=O)NNc1ccc([N+](=O)[O-])cc1C`, the GI50 in the assay with HOP-62 is 13.7 µM (inactive); in the assay on NCI-H522, 25 µM (inactive); with RPMI-8226 it was 21.3 µM (inactive); with HCT-116, 11.2 µM (inactive); in the assay with NCI-H460 it was 17.6 µM (inactive); in the assay on SN12C it was 16.7 µM (inactive). Besides, the GI50 was 16.7 µM (inactive) with TK-10; 15.5 µM (inactive) with MOLT-4; 19.6 µM (inactive) in the assay on IGROV-1; 3.18 µM (inactive) in the assay with MCF7; 17 µM (inactive) in the assay with SNB-75; 16.4 µM (inactive) with SK-MEL-28. In addition, the concentration for 50% growth inhibition (GI50) in the assay with HCT-15 is 19.1 µM; with HT-29, 27 µM (inactive); with NCI-H23, 17.3 µM (inactive); in the assay on K562, 19.5 µM (inactive); in the assay with SK-MEL-2, 21 µM (inactive).
For `Cc1ccc(NC(=O)C2C(=O)N(c3ccc(C)c(C)c3)C(=O)/C2=N\NC(N)=S)cc1C` (stereo not given), the GI50 in the assay on NCI-H522 is 50.2 µM (inactive); in the assay on RPMI-8226 it was > 100 µM (inactive); in the assay with HCT-116 it was > 100 µM (inactive); with KM12, > 100 µM (inactive); with SN12C it was 53.2 µM (inactive); in the assay with TK-10 it was > 100 µM (inactive). For the same compound, the GI50 is 42.6 µM (inactive) in the assay on MOLT-4; 96.4 µM (inactive) with IGROV-1; > 100 µM (inactive) with SNB-75; > 100 µM (inactive) in the assay on SK-MEL-28; greater than 100 µM in the assay on HCT-15; 78 µM (inactive) in the assay with HT-29. Besides, the GI50 in the assay with HOP-92 was > 100 µM (inactive); with NCI-H23 it was > 100 µM (inactive); in the assay on K562, 60.7 µM (inactive); with SK-MEL-2, > 100 µM (inactive).
Consider `O=C1C[C@H](c2ccccc2)C2(C(=O)c3ccccc3C2=O)[C@H](c2ccccc2)C1`, for which the GI50 in the assay with HOP-62 was 24.3 µM (inactive); in the assay on NCI-H522 it was 91 µM (inactive); in the assay with RPMI-8226, > 100 µM (inactive); in the assay on HCT-116 it was 46.5 µM (inactive); in the assay with NCI-H460, > 100 µM (inactive); with KM12, > 100 µM (inactive). The GI50 in the assay with SN12C is > 100 µM (inactive); in the assay with COLO 205, 88.7 µM (inactive); in the assay with MOLT-4 it was 61.2 µM (inactive); in the assay with IGROV-1, 9.08 µM (inactive); in the assay with SNB-75 it was 27 µM (inactive); in the assay on SK-MEL-28 it was > 100 µM (inactive). Besides, the GI50 is greater than 100 µM in the assay on HCT-15; > 100 µM (inactive) with HT-29; 32.2 µM (inactive) in the assay with HOP-92; > 100 µM (inactive) in the assay with NCI-H23; > 100 µM (inactive) in the assay with K562; 16.6 µM (inactive) in the assay on SK-MEL-2.
Regarding `Oc1cc(-c2ccc(Cl)cc2)nc2ncccc12`, the GI50 in the assay on HOP-62 was 55 µM (inactive); with NCI-H522 it was 40.3 µM (inactive); in the assay on RPMI-8226, 24.3 µM (inactive); in the assay with KM12, 14.9 µM (inactive); with SN12C, 75.9 µM (inactive); with TK-10, 94.4 µM (inactive). Besides, the GI50 in the assay with COLO 205 is 21.7 µM (inactive); in the assay with MOLT-4, 40.2 µM (inactive); in the assay on IGROV-1, 44.3 µM (inactive); in the assay with MCF7, 16.6 µM (inactive); in the assay on SNB-75 it was 24.5 µM (inactive); with SK-MEL-28 it was 57.1 µM (inactive). Moreover, the GI50 in the assay on HCT-15 was 27.4 µM; with HT-29, 34.9 µM (inactive); in the assay on HOP-92, 41.2 µM (inactive); with NCI-H23 it was 86.5 µM (inactive); in the assay with K562, 11.5 µM (inactive); with SK-MEL-2 it was 31 µM (inactive).
